Test results from paper PMC7614683, “A small molecule PI3Kα activator for cardioprotection and neuroregeneration” (Nature, 2023).
Like-named read-outs stand apart in the source and are kept apart here.

Assays:
Assay in all cases: SelectScreen Z-LYTE kinase activity assay (SI Table 6)
Type in all cases: biochemical
[1] = target: T1, protein kinases of the Z-LYTE panel (Homo sapiens, UniProt P54760)
T1 sequence (P54760 16-987): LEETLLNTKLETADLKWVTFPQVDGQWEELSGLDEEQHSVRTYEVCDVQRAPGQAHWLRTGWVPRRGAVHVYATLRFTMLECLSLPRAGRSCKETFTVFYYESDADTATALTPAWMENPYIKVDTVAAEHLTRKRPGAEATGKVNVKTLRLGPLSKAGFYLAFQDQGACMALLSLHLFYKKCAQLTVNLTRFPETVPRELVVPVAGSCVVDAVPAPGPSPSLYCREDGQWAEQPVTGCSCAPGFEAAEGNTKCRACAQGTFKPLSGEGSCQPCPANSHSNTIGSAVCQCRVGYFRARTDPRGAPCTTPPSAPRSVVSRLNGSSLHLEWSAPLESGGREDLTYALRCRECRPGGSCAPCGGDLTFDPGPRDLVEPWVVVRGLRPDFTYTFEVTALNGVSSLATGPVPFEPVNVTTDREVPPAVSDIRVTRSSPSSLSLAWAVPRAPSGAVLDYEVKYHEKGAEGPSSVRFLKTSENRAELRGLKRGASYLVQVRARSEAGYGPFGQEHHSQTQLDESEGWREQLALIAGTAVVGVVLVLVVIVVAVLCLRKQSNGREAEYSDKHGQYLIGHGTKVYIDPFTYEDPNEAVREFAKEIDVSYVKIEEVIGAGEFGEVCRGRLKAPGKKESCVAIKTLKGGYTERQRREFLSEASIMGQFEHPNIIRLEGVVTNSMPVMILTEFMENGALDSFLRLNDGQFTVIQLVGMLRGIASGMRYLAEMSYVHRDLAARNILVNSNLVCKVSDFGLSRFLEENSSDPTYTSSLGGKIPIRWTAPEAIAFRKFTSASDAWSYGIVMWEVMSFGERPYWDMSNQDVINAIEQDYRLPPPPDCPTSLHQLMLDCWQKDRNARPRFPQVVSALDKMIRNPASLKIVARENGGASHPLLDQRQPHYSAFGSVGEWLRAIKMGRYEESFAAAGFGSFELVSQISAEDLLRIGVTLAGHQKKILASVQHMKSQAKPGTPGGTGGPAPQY
Procedure, shortened: (§1)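 Percent effect values derive from SelectScreen Adapta, Lantha and Z-LYTE assays in which 1938 was present at 1 μM, spanning 133 protein kinases and 7 lipid kinases.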

[2] = target: protein kinases of the Z-LYTE panel (Homo sapiens, UniProt P06241)
Procedure, shortened: as §1

[3] = target: protein kinases of the Z-LYTE panel (Homo sapiens, UniProt Q9P286)
Procedure, shortened: as §1

[4] = target: protein kinases of the Z-LYTE panel (Homo sapiens, UniProt Q16539)
Procedure, shortened: as §1

[5] = target: protein kinases of the Z-LYTE panel (Homo sapiens, UniProt P17252)
Procedure, shortened: as §1

[6] = target: protein kinases of the Z-LYTE panel (Homo sapiens, UniProt P80192)
Procedure, shortened: as §1

[7] = target: protein kinases of the Z-LYTE panel (Homo sapiens, UniProt O75582)
Procedure, shortened: as §1

Chain of protein kinases of the Z-LYTE panel (Homo sapiens, UniProt Q9P286) (Q9P286 whole entry): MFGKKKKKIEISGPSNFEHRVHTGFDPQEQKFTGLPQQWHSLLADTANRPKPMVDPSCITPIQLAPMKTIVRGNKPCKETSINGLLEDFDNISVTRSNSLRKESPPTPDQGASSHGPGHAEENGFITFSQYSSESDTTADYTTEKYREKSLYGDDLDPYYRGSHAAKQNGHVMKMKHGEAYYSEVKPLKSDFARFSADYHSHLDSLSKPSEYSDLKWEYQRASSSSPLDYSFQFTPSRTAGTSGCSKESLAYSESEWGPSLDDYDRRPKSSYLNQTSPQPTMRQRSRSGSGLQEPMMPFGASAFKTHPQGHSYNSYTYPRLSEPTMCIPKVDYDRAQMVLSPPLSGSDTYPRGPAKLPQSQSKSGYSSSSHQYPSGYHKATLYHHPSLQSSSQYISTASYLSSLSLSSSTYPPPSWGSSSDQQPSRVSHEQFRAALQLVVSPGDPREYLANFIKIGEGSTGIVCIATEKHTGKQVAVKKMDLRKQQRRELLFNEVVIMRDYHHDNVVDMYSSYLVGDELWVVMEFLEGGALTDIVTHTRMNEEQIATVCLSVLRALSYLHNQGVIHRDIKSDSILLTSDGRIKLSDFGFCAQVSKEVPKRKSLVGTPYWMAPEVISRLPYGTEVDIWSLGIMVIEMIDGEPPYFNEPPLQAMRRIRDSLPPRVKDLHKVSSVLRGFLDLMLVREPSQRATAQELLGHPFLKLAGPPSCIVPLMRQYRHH
Chain of protein kinases of the Z-LYTE panel (Homo sapiens, UniProt P80192) (P80192 whole entry): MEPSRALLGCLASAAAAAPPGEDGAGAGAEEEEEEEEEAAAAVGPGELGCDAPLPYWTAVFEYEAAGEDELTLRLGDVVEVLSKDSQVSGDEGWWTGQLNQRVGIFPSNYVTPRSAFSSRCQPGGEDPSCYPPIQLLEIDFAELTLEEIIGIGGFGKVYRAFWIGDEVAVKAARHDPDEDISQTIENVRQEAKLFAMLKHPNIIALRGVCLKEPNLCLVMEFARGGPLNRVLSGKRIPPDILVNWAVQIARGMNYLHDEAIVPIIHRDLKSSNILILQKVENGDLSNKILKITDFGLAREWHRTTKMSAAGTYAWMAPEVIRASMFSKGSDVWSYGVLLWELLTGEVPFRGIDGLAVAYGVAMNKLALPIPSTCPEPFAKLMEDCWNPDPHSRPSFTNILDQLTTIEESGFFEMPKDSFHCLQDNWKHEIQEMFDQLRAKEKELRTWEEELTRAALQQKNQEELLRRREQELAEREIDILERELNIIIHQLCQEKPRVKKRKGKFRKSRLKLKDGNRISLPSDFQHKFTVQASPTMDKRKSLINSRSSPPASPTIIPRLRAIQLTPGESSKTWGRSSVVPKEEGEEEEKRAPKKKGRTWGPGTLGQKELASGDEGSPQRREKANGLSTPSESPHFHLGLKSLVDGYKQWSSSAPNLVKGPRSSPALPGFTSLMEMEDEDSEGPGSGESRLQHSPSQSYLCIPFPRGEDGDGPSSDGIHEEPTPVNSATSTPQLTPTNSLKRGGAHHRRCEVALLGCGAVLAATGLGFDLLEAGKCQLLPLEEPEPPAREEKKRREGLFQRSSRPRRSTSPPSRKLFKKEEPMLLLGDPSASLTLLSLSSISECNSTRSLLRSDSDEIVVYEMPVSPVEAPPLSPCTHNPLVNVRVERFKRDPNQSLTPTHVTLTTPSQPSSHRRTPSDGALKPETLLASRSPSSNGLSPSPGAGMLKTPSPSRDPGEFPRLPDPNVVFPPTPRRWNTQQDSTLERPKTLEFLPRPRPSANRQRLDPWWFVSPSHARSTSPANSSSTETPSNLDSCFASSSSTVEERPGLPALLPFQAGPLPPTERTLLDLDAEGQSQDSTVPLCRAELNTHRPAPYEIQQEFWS
Chain of protein kinases of the Z-LYTE panel (Homo sapiens, UniProt O75582) (O75582 whole entry): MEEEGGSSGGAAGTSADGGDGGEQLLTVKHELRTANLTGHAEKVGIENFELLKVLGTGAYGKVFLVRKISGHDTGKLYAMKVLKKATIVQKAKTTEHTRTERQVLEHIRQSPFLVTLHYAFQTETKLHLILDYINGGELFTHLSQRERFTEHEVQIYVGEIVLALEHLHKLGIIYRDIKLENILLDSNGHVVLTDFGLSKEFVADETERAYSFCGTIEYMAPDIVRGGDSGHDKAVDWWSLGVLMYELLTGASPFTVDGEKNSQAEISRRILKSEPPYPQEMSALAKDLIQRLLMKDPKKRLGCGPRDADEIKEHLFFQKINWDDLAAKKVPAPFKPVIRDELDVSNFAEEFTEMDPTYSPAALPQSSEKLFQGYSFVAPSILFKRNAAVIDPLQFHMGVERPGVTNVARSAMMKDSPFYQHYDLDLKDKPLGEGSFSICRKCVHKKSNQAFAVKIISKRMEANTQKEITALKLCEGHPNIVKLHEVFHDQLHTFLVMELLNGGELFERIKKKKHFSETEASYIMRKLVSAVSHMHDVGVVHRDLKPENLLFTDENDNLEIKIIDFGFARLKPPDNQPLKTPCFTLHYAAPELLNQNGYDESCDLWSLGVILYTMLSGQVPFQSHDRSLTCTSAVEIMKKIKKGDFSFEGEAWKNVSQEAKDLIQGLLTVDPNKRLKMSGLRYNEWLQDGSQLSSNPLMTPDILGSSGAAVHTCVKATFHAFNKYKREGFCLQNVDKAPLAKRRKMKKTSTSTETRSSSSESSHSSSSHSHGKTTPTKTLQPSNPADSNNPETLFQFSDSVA
Chain of protein kinases of the Z-LYTE panel (Homo sapiens, UniProt P06241) (P06241 whole entry): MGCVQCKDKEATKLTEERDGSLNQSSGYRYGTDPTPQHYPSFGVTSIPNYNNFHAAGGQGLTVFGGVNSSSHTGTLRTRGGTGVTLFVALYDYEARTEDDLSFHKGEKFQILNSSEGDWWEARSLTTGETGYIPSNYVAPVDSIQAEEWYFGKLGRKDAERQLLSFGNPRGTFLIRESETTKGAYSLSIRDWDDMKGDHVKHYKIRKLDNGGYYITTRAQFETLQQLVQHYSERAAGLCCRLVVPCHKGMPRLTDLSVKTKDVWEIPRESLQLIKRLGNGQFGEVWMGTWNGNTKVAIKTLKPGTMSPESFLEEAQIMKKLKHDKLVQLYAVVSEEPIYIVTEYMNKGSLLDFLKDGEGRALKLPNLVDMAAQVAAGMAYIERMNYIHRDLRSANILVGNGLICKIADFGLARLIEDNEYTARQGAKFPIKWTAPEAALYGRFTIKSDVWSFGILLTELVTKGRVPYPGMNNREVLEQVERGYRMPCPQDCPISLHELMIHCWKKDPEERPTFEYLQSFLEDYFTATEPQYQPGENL
Chain of protein kinases of the Z-LYTE panel (Homo sapiens, UniProt Q16539) (Q16539 whole entry): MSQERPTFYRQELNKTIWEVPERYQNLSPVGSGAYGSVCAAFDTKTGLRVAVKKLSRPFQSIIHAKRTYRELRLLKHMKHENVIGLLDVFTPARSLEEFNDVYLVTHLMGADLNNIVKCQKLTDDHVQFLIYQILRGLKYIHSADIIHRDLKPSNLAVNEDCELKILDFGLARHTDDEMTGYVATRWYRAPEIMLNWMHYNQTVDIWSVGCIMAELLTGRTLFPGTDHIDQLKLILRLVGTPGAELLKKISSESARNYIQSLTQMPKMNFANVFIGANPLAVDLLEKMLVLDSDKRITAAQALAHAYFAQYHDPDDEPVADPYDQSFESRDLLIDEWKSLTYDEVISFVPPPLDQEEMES

Q: `CCN1CCN(c2ccc(Nc3cc(Nc4cccc5c4N(C(C)=O)CC5)ccn3)cc2)CC1` [Compound 1938] was tested. Which inhibition at 1 µM ([1]; read-out: % Inhibition Point 1) did it give?
A: 10%

Q: What about the inhibition at 1 µM ([1]; read-out: % Inhibition Point 2) of the same compound?
A: -1.75%

Q: What about the inhibition at 1 µM ([1]; read-out: % Inhibition mean) of the same compound?
A: 4%

Q: And the inhibition at 1 µM ([2]; read-out: % Inhibition Point 1)?
A: 6%

Q: What about the inhibition at 1 µM ([2]; read-out: % Inhibition Point 2) of the same compound?
A: 7%

Q: And the inhibition at 1 µM ([2]; read-out: % Inhibition mean)?
A: 6.46%

Q: What about the inhibition at 1 µM ([3]; read-out: % Inhibition Point 1) of the same compound?
A: 0.526%

Q: What about the inhibition at 1 µM ([3]; read-out: % Inhibition Point 2) of the same compound?
A: 3.33%

Q: What about the inhibition at 1 µM ([3]; read-out: % Inhibition mean) of the same compound?
A: 2%

Q: And the inhibition at 1 µM ([4]; read-out: % Inhibition Point 1)?
A: 9%

Q: And the inhibition at 1 µM ([4]; read-out: % Inhibition Point 2)?
A: 9%

Q: What about the inhibition at 1 µM ([4]; read-out: % Inhibition mean) of the same compound?
A: 9%

Q: And the inhibition at 1 µM ([5]; read-out: % Inhibition Point 1)?
A: 13%

Q: What about the inhibition at 1 µM ([5]; read-out: % Inhibition Point 2) of the same compound?
A: 12%

Q: What about the inhibition at 1 µM ([5]; read-out: % Inhibition mean) of the same compound?
A: 13%

Q: What about the inhibition at 1 µM ([6]; read-out: % Inhibition Point 1) of the same compound?
A: 6.46%

Q: And the inhibition at 1 µM ([6]; read-out: % Inhibition Point 2)?
A: 4%

Q: And the inhibition at 1 µM ([6]; read-out: % Inhibition mean)?
A: 5%

Q: What about the inhibition at 1 µM ([7]; read-out: % Inhibition Point 1) of the same compound?
A: 1.64%

Q: And the inhibition at 1 µM ([7]; read-out: % Inhibition Point 2)?
A: 4%

Q: And the inhibition at 1 µM ([7]; read-out: % Inhibition mean)?
A: 3%
